pEC50: −log10 of the molar value. Like-named read-outs stand apart in the source and are kept apart here.

Experiment [1] concerns SZ95 sebocytes. Put plainly: Sentinel Lipid Assay (SLA), desaturation index in SZ95 sebocytes. The class given is cell-based. The note with it: Homo sapiens, 72 h; for pEC50: desaturation index, lowest dose used 4.6 nM, read-out: SLA EC50. The procedure:
Sentinel Lipid Assay (SLA)
The sentinel lipid assay was used quantify the change in the global desaturation index in SZ95 sebocytes upon administration of certain LXR agonist compounds provided herein. The assay measures a smaller subset of lipid analytes in meibum (termed “sentinel lipids”) which would model the global changes the population of both saturated and desaturated lipids in the cells. In order to define this smaller subset of lipids, a complete lipid profile was recorded on dose response curves (eight levels from 4 nM to 10 uM) of Compounds 1-72. An elastic net regression model was applied separately to both the saturated and desaturated lipids to determine the minimum combination of coefficients and analytes, which could be used to adequately model the total population of lipids. The elastic net model was able to reduce the behavior of 425 lipids to 11 lipids and the correlation between the desaturation indices observed using the complete set of lipids with from the 11 sentinel lipids was 0.96.
A medium throughput assay was created using this reduced set of sentinel lipids. A single batch is defined as triplicate examples of three unique plates (i.e., a single batch of cells is used to create nine plates for LC-MSMS analysis). Lipids were extracted from the cells using a 1:1 mixture of methylene chloride/methanol containing 10 nM of deuterated standards of triglycerides, which are used as internal standards for quantitating the lipid abundance. The lipids were separated prior to mass spectrometric analysis using a five minute HPLC gradient. The abundance of the sentinel lipids and the internal standards are measured using multiple reaction monitor mode (MRM) on a triple quadrupole mass spectrometer. The data was transformed from total ion current to nmoles/10^6 cells, which are multiplied by the coefficients from the elastic net model to determine the effective desaturated and saturated content, and therein the desaturation index of the dosed cells. In order to compare compounds from multiple batches with one another, the measure raw desaturation index was normalized by dividing it by the desaturation index of the DMSO dosed cells, and all data was assessed as the fraction by which the compound increases the desaturation index above 1.
SZ95 (immortalized human sebaceous gland cells) cells were seeded in Greiner bio-one 96-well polypropylene plates that were pre-treated with 50 μg/mL Human Plasma Fibronectin (Thermo Fisher Scientific) at a density of 10^4 cells/135 μl. Cells were incubated in a humidified incubator with 5% CO2 at 37° C. overnight. Test compounds were diluted at a ratio of 1:3 and added to cells at final concentrations starting from 10 μM. 2-(3-(3-((2-chloro-3-(trifluoromethyl)benzyl)(2,2-diphenylethyl)amino)propoxy)phenyl)acetic acid was used as a positive control reference compound in each plate. Cells in the assay plate were incubated in a humidified incubator with 5% CO2 at 37° C. for 72 h.
Culture medium was removed from the cells and cells in culture plates were washed with ice cold phosphate buffered saline three times. Plates were heat sealed and stored in a −80° C. freezer prior to Sentinel lipid assay. The Amax value refers to the percent EC50 of the tested compound compared to a reference compound, 2-(3-(3-((2-chloro-3-(trifluoromethyl)benzyl)(2,2-diphenylethyl)amino)propoxy)phenyl)acetic acid.

The test system of experiment [2] is SCD1. As to the kind of experiment: Measurement of SCD1 expression in SZ95-SCD1-HiBit cells (HiBiT assay). The note with it: Homo sapiens; for pEC50: read-out: HiBit EC50. The class given is cell-based. From the text:
Measurement of SCD1 Expression in SZ95-SCD1-HiBit Cells
SCD1 expression levels in SZ95 cells were quantitated using the HiBiT system (Promega) in which a small peptide sequence (SmBiT) with a larger protein (LgBiT) reconstitutes luciferase activity and can generate a luminescent signal used for quantitation. SZ95-SCD1-HiBit cells were generated by editing the SCD1 gene of SZ95 cells resulting in the addition of an 8 amino acid linker sequence (gssggssg, SEQ ID NO:1) followed by an 11-amino acid SmBiT sequence (vsgwrlfkkis, SEQ ID NO:2) at the carboxy-terminus of the SCD1 protein. The gRNA targeting sequence used was […] (SEQ ID NO: 3) and the SCD1 insertion oligonucleotide encoding the SmBiT sequence was:
SZ95-SCD1-HiBit cells were seeded in 384-well cell culture white plates at a density of 3000 cells/30 μl. Water was added to edge wells to avoid evaporation. Cells were incubated in a humidified incubator with 5% CO2 at 37° C. overnight. Tested compounds were diluted at a ratio of 1:3 in DMSO using an Agilent BRAVO Automated Liquid Handling Platform and, after further serial dilutions, added to cells at final concentrations starting from 18 μM. 2-(3-(3-((2-chloro-3-(trifluoromethyl)benzyl)(2,2-diphenylethyl)amino)propoxy)phenyl)acetic acid was used as a reference compound in each plate. Cells in the assay plate were incubated in a humidified incubator with 5% CO2 at 37° C. for 48 h.
The assay plates were removed from the incubator and allowed to equilibrate to room temperature. Nano-Glo® HiBiT Detection Reagent (Promega; a mixture of Nano-Glo HiBiT Detection Buffer, Nano-Glo HiBiT Detection Substrate, and LgBiT protein, according to the manufacturer's instructions) was added into assay plates, at a volume equal to cell culture medium in each well. Plates were placed on an orbital shaker at a speed of 300-600 rpm for 10 min at room temperature, and read on an EnVision Plate Reader using luminescence detection with a 1 second read time.
The assay measures the increase in SCD1 protein production in vitro. Amax refers to the percent EC50 of the tested compound compared to a reference compound, 2-(3-(3-((2-chloro-3-(trifluoromethyl)benzyl)(2,2-diphenylethyl)amino)propoxy)phenyl)acetic acid.
In general terms: With HiBiT, luminescence reflects the tagged protein that the partner subunit can reach.

Setting [3] is: normalized Amax based on the reference compound Amax of 100%, read-out: SLA Normalized Amax.
[4] abbreviates: SZ95 cells, compared to reference compound, read-out: SLA Amax.
Setting [5] is: 48 h, normalized Amax based on the reference compound Amax of 100%, read-out: HiBit Normalized Amax.
The mark [6] stands for this setting: SZ95-SCD1-HiBit cells, 48 h, SCD1 protein production, luminescence, initial dilution 1:3 in DMSO.
The mark [7] stands for this setting: SZ95-SCD1-HiBit cells, 48 h, compared to reference compound, read-out: HiBit Amax.
Setting [8] is: footnote a: initial dilution for the compound 1:100 in assay medium rather than 1:3 in DMSO.

The term pEC50 denotes the EC50 on a negative log10 scale, so that one unit is a factor of ten. As to `CC1(C)C(=O)N(Cc2nc(-c3ccc(OCC(C)(C(F)(F)F)C(F)(F)F)c(C(F)(F)F)c3)no2)C(=O)N1CCC1CCOCC1` [Compound 1, 5,5-dimethyl-1-(2-(tetrahydro-2H-pyran-4-yl)ethyl)-3-((3-(4-(3,3,3-trifluoro-2-methyl-2-(trifluoromethyl)propoxy)-3-(trifluoromethyl)phenyl)-1,2,4-oxadiazol-5-yl)methyl)imidazolidine-2,4-dione], the Emax came to 87.1% in experiment [1] (setting [3]), 83.6% in experiment [1] (setting [4]), 91.7% in experiment [2] (setting [5]) and 87.2% in experiment [2] (setting [7]). The results for the pEC50 in experiment [1] (SZ95 cells) and in experiment [2] (setting [6]) were at least 8.34 and 9.30, respectively.

For `CCCC1(C)C(=O)N(Cc2nc(-c3ccc(Oc4ccccc4S(=O)(=O)CC(C)C)c(C(F)(F)F)c3)no2)C(=O)N1CCN1CCOCC1` (stereo not drawn) [Compound 2, 3-((3-(4-(2-(isobutylsulfonyl)phenoxy)-3-(trifluoromethyl)phenyl)-1,2,4-oxadiazol-5-yl)methyl)-5-methyl-1-(2-morpholinoethyl)-5-propylimidazolidine-2,4-dione], the Emax came to 190% in experiment [1] (setting [3]), 182% in experiment [1] (setting [4]), 95.2% in experiment [2] (setting [5]) and 90.5% in experiment [2] (setting [7]). The figures for the pEC50 in experiment [1] (SZ95 cells) and in experiment [2] (setting [6]) were at least 8.34 and 8.82, respectively.

Turning to `CC(C)CS(=O)(=O)c1ccccc1Oc1ccc(-c2noc(CN3C(=O)N(CCN4CCOCC4)C4(CCCCC4)C3=O)n2)cc1C(F)(F)F` [Compound 3, 3-((3-(4-(2-(isobutylsulfonyl)phenoxy)-3-(trifluoromethyl)phenyl)-1,2,4-oxadiazol-5-yl)methyl)-1-(2-morpholinoethyl)-1,3-diazaspiro[4.5]decane-2,4-dione], the Emax amounted to 117% in experiment [1] (setting [3]), 112% in experiment [1] (setting [4]), 78.5% in experiment [2] (setting [5]) and 74.7% in experiment [2] (setting [7]). Also, the pEC50 in experiment [1] (SZ95 cells) was at least 8.34; in experiment [2] (setting [6]), 8.91.

For `CC(C)N(C)S(=O)(=O)c1ccccc1Oc1ccc(-c2noc(CN3C(=O)N(CCC4CCOCC4)C(C)(C)C3=O)n2)cc1C(F)(F)F` [Compound 5, 2-(4-(5-((4,4-dimethyl-2,5-dioxo-3-(2-(tetrahydro-2H-pyran-4-yl)ethyl)imidazolidin-1-yl)methyl)-1,2,4-oxadiazol-3-yl)-2-(trifluoromethyl)phenoxy)-N-isopropyl-N-methylbenzenesulfonamide], the Emax came to 152% in experiment [1] (setting [3]), 146% in experiment [1] (setting [4]), 87.7% in experiment [2] (setting [5]) and 83.4% in experiment [2] (setting [7]). Further, the pEC50 in experiment [1] (SZ95 cells) is at least 8.34; in experiment [2] (setting [6]), 10.25.

Consider `CC(C)CS(=O)(=O)c1ccccc1Oc1ccc(-c2noc(CN3C(=O)N(CCC4(O)CCOCC4)C(C)(C)C3=O)n2)cc1C(F)(F)F` [Compound 6, 1-(2-(4-hydroxytetrahydro-2H-pyran-4-yl)ethyl)-3-((3-(4-(2-(isobutylsulfonyl)phenoxy)-3-(trifluoromethyl)phenyl)-1,2,4-oxadiazol-5-yl)methyl)-5,5-dimethylimidazolidine-2,4-dione], for which the Emax in experiment [1] (setting [3]) came to 101%; in experiment [1] (setting [4]), 96.7%; in experiment [2] (setting [5]), 69.8%; in experiment [2] (setting [7]), 66.4%. The pEC50 in experiment [1] (SZ95 cells) was 7.43; in experiment [2] (setting [6]) it was 7.36.

Take `CC(C)(C)c1ccccc1Oc1ccc(-c2noc(CN3C(=O)N(CCC4CCOCC4)C4(CCN(C5CCC5)CC4)C3=O)n2)cc1C(F)(F)F` [Compound 7, 3-((3-(4-(2-(tert-butyl)phenoxy)-3-(trifluoromethyl)phenyl)-1,2,4-oxadiazol-5-yl)methyl)-8-cyclobutyl-1-(2-(tetrahydro-2H-pyran-4-yl)ethyl)-1,3,8-triazaspiro[4.5]decane-2,4-dione]: the Emax in experiment [1] (setting [3]) came out at 110%; in experiment [1] (setting [4]) it was 105%; in experiment [2] (setting [5]), 90%; in experiment [2] (setting [7]), 85.6%. Also, the pEC50 is at least 8.34 in experiment [1] (SZ95 cells) and 9.89 in experiment [2] (setting [6]).

In the case of `CC(C)CS(=O)(=O)c1ccccc1Oc1ccc(-c2noc(CN3C(=O)N(CCN4CCOCC4)C4(CCNCC4)C3=O)n2)cc1C(F)(F)F` [Compound 9, 3-((3-(4-(2-(isobutylsulfonyl)phenoxy)-3-(trifluoromethyl)phenyl)-1,2,4-oxadiazol-5-yl)methyl)-1-(2-morpholinoethyl)-1,3,8-triazaspiro[4.5]decane-2,4-dione], the Emax in experiment [1] (setting [3]) was 147%; in experiment [1] (setting [4]) it was 142%; in experiment [2] (setting [5]), 98.1%; in experiment [2] (setting [7]), 93.3%. Further, the pEC50 in experiment [1] (SZ95 cells) is at least 8.34; in experiment [2] (setting [6]), 8.48.

With `CC(C)CS(=O)(=O)c1ccccc1Oc1ccc(-c2noc(CN3C(=O)NC(C)(C)C3=O)n2)cc1C(F)(F)F` [Compound 50a, 3-((3-(4-(2-(isobutylsulfonyl)phenoxy)-3-(trifluoromethyl)phenyl)-1,2,4-oxadiazol-5-yl)methyl)-5,5-dimethylimidazolidine-2,4-dione], the Emax stood at 70.5% in experiment [2] (setting [5]) and 67% in experiment [2] (setting [7]). Also, the pEC50 in experiment [2] (setting [8]) is 6.59.

With `CC(C)CS(=O)(=O)c1ccccc1Oc1ccc(-c2noc(CN3C(=O)N(CCN4CCOCC4)C4(CCN(C(=O)CCC(=O)O)CC4)C3=O)n2)cc1C(F)(F)F` [Compound 68, 4-(3-((3-(4-(2-(isobutylsulfonyl)phenoxy)-3-(trifluoromethyl)phenyl)-1,2,4-oxadiazol-5-yl)methyl)-1-(2-morpholinoethyl)-2,4-dioxo-1,3,8-triazaspiro[4.5]decan-8-yl)-4-oxobutanoic acid], the figures for the Emax in experiment [2] (setting [5]) and in experiment [2] (setting [7]) were 84% and 79.9%, respectively. Further, the pEC50 in experiment [2] (setting [8]) is 8.34.

`O=C(O)CCCCC(=O)N1CCC2(CC1)C(=O)N(Cc1nc(-c3ccc(Oc4ccccc4C(F)(F)F)c(C(F)(F)F)c3)no1)C(=O)N2CCN1CCOCC1` [Compound 69, 6-(1-(2-morpholinoethyl)-2,4-dioxo-3-((3-(3-(trifluoromethyl)-4-(2-(trifluoromethyl)phenoxy)phenyl)-1,2,4-oxadiazol-5-yl)methyl)-1,3,8-triazaspiro[4.5]decan-8-yl)-6-oxohexanoic acid]: the Emax amounted to 76.4% in experiment [2] (setting [5]) and 72.7% in experiment [2] (setting [7]). Also, in experiment [2] (setting [6]), the pEC50 is 9.18.
